Assay [1] deals with influenza A/California/07/09(H1N1)pdm09. The format is in vivo, mice.
Assay [2] concerns Pseudomonas aeruginosa (RP73). The experiment in a line: Pseudomonas aeruginosa lung infection in rats. The format is in vivo, Sprague-Dawley rats.
For assay [3], the system named is Clostridium perfringens (ATCC 13124).
Assay [4] concerns Streptococcus pyogenes (ATCC BAA-2469). Briefly: Soft tissue (thigh) infection model in neutropenic mice. The format is in vivo. The note with it: 24 hours post infection.
Assay [5] relates to Klebsiella pneumoniae BAA-1705. Briefly: Bacterial pneumonia in neutropenic mice, AMC-resistant strain (Study No. 1). The format is in vivo.
Assay [6] deals with carrageenan induced inflammation in rats. Briefly: Carrageenan induced paw oedema. The format is in vivo. The procedure:
Inflammatory response was induced in animals by subplantar injection (into the plantar aponeurosis of the left hind paw) of 0.1 ml 1% carrageenan solution.
The severity of inflammatory response was assessed by estimating oedema weight gain in mg calculated as a difference between the paw weights with and without oedema.

Assay [7] has as its system Mycobacterium tuberculosis. Briefly: Antituberculosis activity in guinea pig model of experimental tuberculosis. To be noted: in vivo.
In assay [8] the test system is Chlamydophila pneumonia CM1 strain. The experiment in a line: Lung infection model with Chlamydophila pneumonia. The format is in vivo, C57BL/6J mice.
Assay [9] deals with Klebsiella pneumoniae 8637 strain. The experiment in a line: Neutropenic lung infection model. The format is in vivo, ICR mice. To be noted: for Decrease in the number of CFU vs control (placebo): Day 5.
[10] abbreviates: 48 hours after infection (medicament: 48 hours and onwards).

Where “and” joins values, the source holds several entries; their conditions need not be identical. Equal entries are not always repeated. Where two headings read alike, the source gives them in different places.

The text below walks through data of patent US20220213197A1 (priority 2019, published 2022).

On to `CCOC(=O)C1=C[C@@H](OC(CC)CC)[C@H](NC(C)=O)[C@@H](N)C1` [Tamiflu, Oseltamivir], for which the “Body weights of experimental animals expressed as M ± SD” value is listed as 16.7 ± 1.2 in assay [1] (Day 0); 15.5 ± 1.4 in assay [1] (Day 5); 13.6 ± 1.7 in assay [1] (Day 9); 14.9 ± 2.2 in [1] (Day 12); 17.8 ± 1.2 in assay [1] (Day −5); 16.1 ± 1.0 in assay [1] (Day −15). The “Protection index, %” value in [1] (PI=((Mc−Me)/Mc)×100%) was 57.1%. The “MLE” value in assay [1] (mean life expectancy over 14 days) was 8.6 days. Besides, in assay [1] (mouse, in vivo), the “Mortality rate, %” value was determined as 30%. Further, the “Viral titer in lung tissue, Mean” value in [1] (mouse, in vivo) was found to be 4.8 Ig TCID50/0.2 ml. In [1] (mouse, in vivo, listed as 2), the “Viral titer in lung tissue, individual animals” value is 4.5 Ig TCID50/0.2 ml (5×) and 5.0 Ig TCID50/0.2 ml (2×) and 4.0 Ig TCID50/0.2 ml and 5.5 Ig TCID50/0.2 ml and 6.0 Ig TCID50/0.2 ml. Further, the “MLE increase” value in [1] (vs negative control) was found to be 0.2 days.

As to `NC[C@H]1O[C@H](O[C@H]2[C@H](O)[C@@H](O[C@H]3O[C@H](CO)[C@@H](O)[C@H](N)[C@H]3O)[C@H](N)C[C@@H]2N)[C@H](N)C[C@@H]1O` [tobramycin], in assay [2] (Day 5), the “Decrease of bronchoalveolar lavage CFU count compared to placebo” value is on record as 88%, the “Decrease of bronchoalveolar lavage CFU count compared to the untreated animals” value stood at 88%, the “Reduction of lung CFU count compared to placebo” value came out at 19% and the “Reduction of lung CFU count compared to the untreated animals” value is 29%. Further, in assay [2] (vs baseline), the “Overall decrease in body weight by the end of the study” value was found to be 4%.

Regarding `CO[C@@]1(NC(=O)Cc2cccs2)C(=O)N2C(C(=O)O)=C(COC(N)=O)CS[C@@H]21` [cefoxitin], the Animals alive in assay [3] (24 hours after infection) was found to be 55%; in [3] (setting [10]), 15%; in assay [3] (72 hours after infection), 15%.

For `CC(=O)NC[C@H]1CN(c2ccc(N3CCOCC3)c(F)c2)C(=O)O1` [placebo + L, linezolid], the “Mean bacterial burden in the femoral tissue” value in assay [4] is 5.5 CFU/g, log10.

Turning to Gentamicin, the Animals survived in assay [5] (AMC-resistant strain, 10^6 CFU/mouse) stood at 70%. Moreover, the Body weight evolution result in assay [5] (follow-up period) was “body weight evolution was observed from 54 h”.

Regarding `CN(C)[C@@H]1C(O)=C(C(N)=O)C(=O)[C@@]2(O)C(O)=C3C(=O)c4c(O)cccc4[C@@](C)(O)[C@H]3C[C@@H]12` [tetracycline], the results for the Animals alive in assay [3] (24 hours after infection), in [3] (setting [10]) and in [3] (72 hours after infection) were 85%, 80% and 80%, respectively.

Consider `COc1ccc2c(c1)c(CC(=O)O)c(C)n2C(=O)c1ccc(Cl)cc1` [indomethacin, Indomethacin], for which the “Decrease of oedema weight as compared to the control” value in assay [6] is 57.9%.

Take `NNC(=O)c1ccncc1` [placebo + isoniazid, Isoniazid]: in assay [7], the “Difference between initial and final body weight of animals” value is 180.6 ± 28.4 g; the “Life expectancy, units” value stood at 2.7 ± 0.09 units.

Consider `CC[C@H]1OC(=O)[C@H](C)C(=O)[C@H](C)[C@@H](O[C@@H]2O[C@H](C)C[C@H](N(C)C)[C@H]2O)[C@](C)(OC)C[C@@H](C)C(=O)[C@H](C)[C@H]2N(CCCCn3cnc(-c4cccnc4)c3)C(=O)O[C@]12C` [placebo + T, telithromycin], for which the “Mean bacterial burden in the femoral tissue” value in assay [4] was 8.4 CFU/g, log10.

Turning to `CC[C@H]1OC(=O)[C@H](C)[C@@H](O[C@H]2C[C@@](C)(OC)[C@@H](O)[C@H](C)O2)[C@H](C)[C@@H](O[C@@H]2O[C@H](C)C[C@H](N(C)C)[C@H]2O)[C@](C)(O)C[C@@H](C)CN(C)[C@H](C)[C@@H](O)[C@]1(C)O` [azithromycin], in assay [8] (Day 3 after infection), the Death rate was 19%; the “IL-1β concentration in lung tissue, % of the control levels (Group 1)” value (shortened to “IL-1β concentration in lung tissue, %”) is 17%; the “IL-6 concentration in lung tissue, % of the control levels (Group 1)” value (shortened to “IL-6 concentration in lung tissue, %”) is 15%; the “Number of infected HEp2 cells (bacterial load of lung homogenate), % of placebo” value (from here on “Number of infected HEp2 cells … % of placebo”) stood at 15%. For the same compound, in assay [8] (Day 6 after infection), the “IL-1β concentration in lung tissue, %” value is given as 7%; the “IL-6 concentration in lung tissue, %” value came out at 8%; the “Number of infected HEp2 cells … % of placebo” value is listed as 17%. In addition, in assay [8] (Day 12 after infection), the “IL-1β concentration in lung tissue, %” value was 6%; the “IL-6 concentration in lung tissue, %” value is 5%; the “Number of infected HEp2 cells … % of placebo” value is on record as 5%. Besides, the Survival rate in assay [8] (whole study, deaths first recorded on Day 3) worked out at 81%.

Turning to `C[C@@H](O)[C@H]1C(=O)N2C(C(=O)O)=C(SCCN=CN)C[C@H]12` [imipenem], the Animals survived is 85% in [9] (Day 1 after infection); 70% in assay [9] (Day 2); 50% in assay [9] (Day 3 (imipenem: Day 3 and onwards)). Further, the “Decrease in the number of CFU vs control (placebo)” value in assay [9] (blood) is given as 67%; in assay [9] (kidneys), 61%; in [9] (liver), 40%; in assay [9] (lungs), 48%; in [9] (spleen), 45%.
